According to PMC10924921, “Mi-2β promotes immune evasion in melanoma by activating EZH2 methylation” (Nature Communications, 2024):

Assays:
Assay in all cases: biochemical
Set-up in all cases: KINOMEscan active-site competition binding panel (468 kinase assays), per cent of control at 1000 nM
Details in all cases: KINOMEscan per cent of control (binding competition); read-out: Percent Control
MEK3 = molecular target: T1, MEK3 (Homo sapiens, UniProt P46734)
T1 construct: gene MAP2K3
Source text: (§1) Figure S7 / Percent Control

IRAK4 = IRAK4 (Homo sapiens, UniProt Q9NWZ3)
Source text: as §1

IKK-beta = molecular target: T2, IKK-beta (Homo sapiens, UniProt O14920)
T2 construct: gene IKBKB
Source text: as §1

TLK1 = TLK1 (Homo sapiens, UniProt Q9UKI8)
Source text: as §1

ACVR1B = ACVR1B (Homo sapiens, UniProt P36896)
Source text: as §1

HCK = HCK (Homo sapiens, UniProt P08631)
Source text: as §1

ULK1 = ULK1 (Homo sapiens, UniProt O75385)
Source text: as §1

SRMS = SRMS (Homo sapiens, UniProt Q9H3Y6)
Source text: as §1

FER = FER (Homo sapiens, UniProt P16591)
Source text: as §1

BRSK2 = BRSK2 (Homo sapiens, UniProt Q8IWQ3)
Source text: as §1

MYO3B = MYO3B (Homo sapiens, UniProt Q8WXR4)
Source text: as §1

CDKL1 = CDKL1 (Homo sapiens, UniProt Q00532)
Source text: as §1

PIK3CG = PIK3CG (Homo sapiens, UniProt P48736)
Source text: as §1

DRAK1 = molecular target: T3, DRAK1 (Homo sapiens, UniProt Q9UEE5)
T3 construct: gene STK17A
Source text: as §1

PAK7 = molecular target: T4, PAK7 (Homo sapiens, UniProt Q9P286)
T4 construct: gene PAK5
Source text: as §1

[1] = molecular target: T5, RPS6KA4(Kin.Dom.1-N-terminal) (Homo sapiens, UniProt O75676)
T5 construct: Kin.Dom.1-N-terminal
Source text: as §1

PYK2 = molecular target: T6, PYK2 (Homo sapiens, UniProt Q14289)
T6 construct: gene PTK2B
Source text: as §1

ABL1-phosphorylated = molecular target: T7, ABL1-phosphorylated (Homo sapiens, UniProt P00519)
T7 construct: phosphorylated
Source text: as §1

CIT = CIT (Homo sapiens, UniProt O14578)
Source text: as §1

[2] = molecular target: T8, ABL1(H396P)-phosphorylated (Homo sapiens, UniProt P00519, H396P)
T8 construct: phosphorylated
Source text: as §1

PAK6 = PAK6 (Homo sapiens, UniProt Q9NQU5)
Source text: as §1

IGF1R = IGF1R (Homo sapiens, UniProt P08069)
Source text: as §1

INSR = INSR (Homo sapiens, UniProt P06213)
Source text: as §1

EPHB4 = EPHB4 (Homo sapiens, UniProt P54760)
Source text: as §1

[3] = molecular target: T9, ABL1(Q252H)-nonphosphorylated (Homo sapiens, UniProt P00519, Q252H)
T9 construct: nonphosphorylated
Source text: as §1

Chain of ACVR1B (P36896 whole entry): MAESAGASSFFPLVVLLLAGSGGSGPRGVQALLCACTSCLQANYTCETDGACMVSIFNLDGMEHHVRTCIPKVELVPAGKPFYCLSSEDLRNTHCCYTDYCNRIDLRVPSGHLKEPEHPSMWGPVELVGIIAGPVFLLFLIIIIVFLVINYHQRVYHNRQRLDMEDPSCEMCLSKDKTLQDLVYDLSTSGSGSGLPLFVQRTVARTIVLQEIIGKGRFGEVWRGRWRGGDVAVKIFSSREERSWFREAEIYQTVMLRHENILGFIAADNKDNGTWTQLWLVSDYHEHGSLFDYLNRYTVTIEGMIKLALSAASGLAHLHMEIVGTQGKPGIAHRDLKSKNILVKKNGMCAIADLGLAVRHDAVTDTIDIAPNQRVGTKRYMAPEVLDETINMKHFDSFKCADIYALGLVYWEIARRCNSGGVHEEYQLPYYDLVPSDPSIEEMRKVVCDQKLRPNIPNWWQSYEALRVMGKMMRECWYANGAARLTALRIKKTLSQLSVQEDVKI
Chain of BRSK2 (Q8IWQ3 whole entry): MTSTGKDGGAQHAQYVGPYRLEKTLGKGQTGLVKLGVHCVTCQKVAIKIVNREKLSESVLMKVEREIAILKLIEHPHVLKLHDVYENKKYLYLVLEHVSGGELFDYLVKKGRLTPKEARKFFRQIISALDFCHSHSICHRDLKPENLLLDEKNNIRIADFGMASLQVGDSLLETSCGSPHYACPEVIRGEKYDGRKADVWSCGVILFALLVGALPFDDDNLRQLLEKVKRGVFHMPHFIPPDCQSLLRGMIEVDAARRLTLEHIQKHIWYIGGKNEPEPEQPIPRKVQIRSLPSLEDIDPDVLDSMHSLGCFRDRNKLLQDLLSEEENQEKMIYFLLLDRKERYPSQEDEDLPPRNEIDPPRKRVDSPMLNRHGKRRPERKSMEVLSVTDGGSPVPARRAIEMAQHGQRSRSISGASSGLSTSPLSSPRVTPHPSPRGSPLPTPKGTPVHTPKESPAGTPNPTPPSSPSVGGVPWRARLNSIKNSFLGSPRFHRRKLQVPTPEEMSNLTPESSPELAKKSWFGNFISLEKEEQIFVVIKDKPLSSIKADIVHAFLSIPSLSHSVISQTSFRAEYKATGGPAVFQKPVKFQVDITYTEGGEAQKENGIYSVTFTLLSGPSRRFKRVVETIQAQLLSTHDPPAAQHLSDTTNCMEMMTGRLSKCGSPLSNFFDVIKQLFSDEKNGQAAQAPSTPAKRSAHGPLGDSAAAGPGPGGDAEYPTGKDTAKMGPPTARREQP
Chain of INSR (P06213 whole entry): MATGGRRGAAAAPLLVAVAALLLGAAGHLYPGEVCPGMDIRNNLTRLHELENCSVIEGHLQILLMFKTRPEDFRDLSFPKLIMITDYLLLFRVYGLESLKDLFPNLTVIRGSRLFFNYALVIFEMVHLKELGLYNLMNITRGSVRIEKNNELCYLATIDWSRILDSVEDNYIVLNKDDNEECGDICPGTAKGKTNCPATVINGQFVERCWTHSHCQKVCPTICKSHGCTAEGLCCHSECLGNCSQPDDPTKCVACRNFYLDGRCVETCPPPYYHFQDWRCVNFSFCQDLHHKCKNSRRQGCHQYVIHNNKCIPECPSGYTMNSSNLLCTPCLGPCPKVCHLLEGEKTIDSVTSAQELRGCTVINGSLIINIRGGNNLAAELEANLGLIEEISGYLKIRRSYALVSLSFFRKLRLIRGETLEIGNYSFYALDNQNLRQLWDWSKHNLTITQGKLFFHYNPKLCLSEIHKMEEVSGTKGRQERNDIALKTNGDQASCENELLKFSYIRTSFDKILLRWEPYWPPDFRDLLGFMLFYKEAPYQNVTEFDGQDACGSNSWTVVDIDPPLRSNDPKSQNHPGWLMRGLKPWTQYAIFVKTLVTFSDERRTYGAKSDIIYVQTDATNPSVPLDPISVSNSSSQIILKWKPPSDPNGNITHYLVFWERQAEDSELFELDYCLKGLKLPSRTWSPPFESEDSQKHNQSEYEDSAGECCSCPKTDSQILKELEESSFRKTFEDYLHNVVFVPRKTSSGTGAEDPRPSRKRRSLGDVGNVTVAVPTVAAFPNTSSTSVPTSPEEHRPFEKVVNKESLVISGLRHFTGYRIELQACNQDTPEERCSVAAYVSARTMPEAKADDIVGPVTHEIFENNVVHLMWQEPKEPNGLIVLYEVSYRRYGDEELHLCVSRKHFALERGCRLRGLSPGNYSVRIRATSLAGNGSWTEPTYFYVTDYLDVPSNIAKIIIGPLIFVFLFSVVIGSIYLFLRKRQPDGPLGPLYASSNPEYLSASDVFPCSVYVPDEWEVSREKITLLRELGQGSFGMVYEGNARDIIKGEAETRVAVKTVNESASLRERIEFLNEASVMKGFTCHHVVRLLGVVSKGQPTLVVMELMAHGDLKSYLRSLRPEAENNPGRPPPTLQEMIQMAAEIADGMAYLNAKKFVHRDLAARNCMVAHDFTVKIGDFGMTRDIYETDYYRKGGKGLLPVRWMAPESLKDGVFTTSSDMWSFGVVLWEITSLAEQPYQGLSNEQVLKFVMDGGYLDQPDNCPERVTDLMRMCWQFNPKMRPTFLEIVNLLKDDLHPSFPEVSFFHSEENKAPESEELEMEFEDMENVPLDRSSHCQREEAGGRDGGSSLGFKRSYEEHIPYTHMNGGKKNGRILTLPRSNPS
Chain of IRAK4 (Q9NWZ3 whole entry): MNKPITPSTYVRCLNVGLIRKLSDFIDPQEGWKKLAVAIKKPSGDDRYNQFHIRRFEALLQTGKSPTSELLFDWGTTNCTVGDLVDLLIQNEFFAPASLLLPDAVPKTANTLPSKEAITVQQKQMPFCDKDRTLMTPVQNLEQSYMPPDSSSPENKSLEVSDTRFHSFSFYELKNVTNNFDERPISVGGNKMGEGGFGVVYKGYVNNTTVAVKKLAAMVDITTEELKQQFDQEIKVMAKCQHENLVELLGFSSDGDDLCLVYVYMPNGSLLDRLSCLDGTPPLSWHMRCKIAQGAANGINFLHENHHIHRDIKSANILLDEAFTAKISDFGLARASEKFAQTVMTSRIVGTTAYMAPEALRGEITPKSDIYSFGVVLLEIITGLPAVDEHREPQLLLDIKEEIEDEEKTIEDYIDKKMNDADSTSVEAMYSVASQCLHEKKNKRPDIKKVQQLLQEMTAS
Chain of HCK (P08631 whole entry): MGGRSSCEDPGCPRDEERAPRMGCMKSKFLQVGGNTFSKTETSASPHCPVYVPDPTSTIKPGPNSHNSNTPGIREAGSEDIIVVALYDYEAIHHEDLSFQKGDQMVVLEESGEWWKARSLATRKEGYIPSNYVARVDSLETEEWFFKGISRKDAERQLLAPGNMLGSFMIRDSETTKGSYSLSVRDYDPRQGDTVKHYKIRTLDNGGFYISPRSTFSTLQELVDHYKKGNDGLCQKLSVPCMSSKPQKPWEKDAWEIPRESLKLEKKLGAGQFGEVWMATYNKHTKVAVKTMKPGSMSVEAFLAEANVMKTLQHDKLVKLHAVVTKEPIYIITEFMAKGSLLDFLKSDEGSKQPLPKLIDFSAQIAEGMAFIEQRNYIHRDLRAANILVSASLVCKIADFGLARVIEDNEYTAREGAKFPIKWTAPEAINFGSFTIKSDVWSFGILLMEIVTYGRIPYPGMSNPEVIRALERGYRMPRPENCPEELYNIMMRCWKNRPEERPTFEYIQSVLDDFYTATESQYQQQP
Chain of CDKL1 (Q00532 whole entry): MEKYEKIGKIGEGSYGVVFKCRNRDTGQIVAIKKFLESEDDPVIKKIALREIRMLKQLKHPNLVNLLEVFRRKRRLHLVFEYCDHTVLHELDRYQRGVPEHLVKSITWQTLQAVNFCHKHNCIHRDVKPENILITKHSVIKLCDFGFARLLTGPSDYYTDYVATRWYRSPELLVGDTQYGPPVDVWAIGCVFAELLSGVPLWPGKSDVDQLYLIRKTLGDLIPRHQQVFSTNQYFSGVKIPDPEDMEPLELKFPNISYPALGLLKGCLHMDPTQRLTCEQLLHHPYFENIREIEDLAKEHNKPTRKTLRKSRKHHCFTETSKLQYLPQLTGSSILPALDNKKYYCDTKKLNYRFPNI
Chain of PIK3CG (P48736 whole entry): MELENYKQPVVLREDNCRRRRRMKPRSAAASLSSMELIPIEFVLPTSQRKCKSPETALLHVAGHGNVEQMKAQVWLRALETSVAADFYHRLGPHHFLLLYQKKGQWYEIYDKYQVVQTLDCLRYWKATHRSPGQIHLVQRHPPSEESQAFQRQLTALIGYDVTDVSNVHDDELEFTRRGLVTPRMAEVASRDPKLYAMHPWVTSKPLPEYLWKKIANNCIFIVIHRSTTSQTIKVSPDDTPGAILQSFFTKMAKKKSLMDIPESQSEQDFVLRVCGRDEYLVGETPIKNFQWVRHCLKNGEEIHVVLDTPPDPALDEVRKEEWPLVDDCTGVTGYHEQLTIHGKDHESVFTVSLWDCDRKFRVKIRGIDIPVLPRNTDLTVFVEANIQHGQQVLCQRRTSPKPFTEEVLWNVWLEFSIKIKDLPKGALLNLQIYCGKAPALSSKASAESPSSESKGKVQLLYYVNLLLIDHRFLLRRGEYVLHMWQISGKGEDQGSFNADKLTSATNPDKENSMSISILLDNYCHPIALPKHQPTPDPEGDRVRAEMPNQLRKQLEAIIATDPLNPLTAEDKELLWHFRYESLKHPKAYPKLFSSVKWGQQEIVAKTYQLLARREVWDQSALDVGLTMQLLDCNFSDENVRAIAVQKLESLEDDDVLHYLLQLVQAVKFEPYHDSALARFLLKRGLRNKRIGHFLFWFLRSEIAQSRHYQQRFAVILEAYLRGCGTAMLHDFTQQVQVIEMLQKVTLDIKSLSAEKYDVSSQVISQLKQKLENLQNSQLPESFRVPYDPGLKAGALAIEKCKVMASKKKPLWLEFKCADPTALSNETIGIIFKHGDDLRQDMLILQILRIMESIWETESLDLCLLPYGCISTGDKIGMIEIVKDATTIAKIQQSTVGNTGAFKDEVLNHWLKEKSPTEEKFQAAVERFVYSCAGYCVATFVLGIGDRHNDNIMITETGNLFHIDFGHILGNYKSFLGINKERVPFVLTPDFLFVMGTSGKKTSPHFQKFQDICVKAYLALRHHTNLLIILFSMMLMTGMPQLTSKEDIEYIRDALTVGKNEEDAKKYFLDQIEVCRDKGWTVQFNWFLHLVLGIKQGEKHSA

## Cn1c(=O)[nH]c2ccc(-c3cccc(C(=O)NC4CCn5ccnc5C4)c3)cc21 (stereo not shown) [Z36-MP5]
MEK3
  remaining binding at 1 µM: 66%
IRAK4
  remaining binding at 1 µM: 78%
IKK-beta
  remaining binding at 1 µM: 66%
TLK1
  remaining binding at 1 µM: 90%
ACVR1B
  remaining binding at 1 µM: 94%
HCK
  remaining binding at 1 µM: 95%
ULK1
  remaining binding at 1 µM: 51%
SRMS
  remaining binding at 1 µM: 89%
FER
  remaining binding at 1 µM: 90%
BRSK2
  remaining binding at 1 µM: 100%
MYO3B
  remaining binding at 1 µM: 91%
CDKL1
  remaining binding at 1 µM: 41%
PIK3CG
  remaining binding at 1 µM: 83%
DRAK1
  remaining binding at 1 µM: 96%
PAK7
  remaining binding at 1 µM: 92%
[1]
  remaining binding at 1 µM: 90%
PYK2
  remaining binding at 1 µM: 93%
ABL1-phosphorylated
  remaining binding at 1 µM: 51%
CIT
  remaining binding at 1 µM: 76%
[2]
  remaining binding at 1 µM: 82%
PAK6
  remaining binding at 1 µM: 91%
IGF1R
  remaining binding at 1 µM: 97%
INSR
  remaining binding at 1 µM: 57%
EPHB4
  remaining binding at 1 µM: 84%
[3]
  remaining binding at 1 µM: 84%
